From article PMC5376326, “Inhibition of ANO1 by luteolin and its cytotoxicity in human prostate cancer PC-3 cells” (PLoS ONE, 2017)
Where “and” joins values, the source holds several entries; their conditions need not be identical. Identical values can stand only once.

Tests used:
[1] = tested on: PC-3 cells; experiment: Cell proliferation (MTS) assay in PC-3 cells; assay type: cell-based, human; conditions: 24 hour; for Inhibition of cell proliferation, high versus low ANO1 expressing PC-3 cells: 3-100 μM
Method: PC-3 cells were seeded to a confluency of ~30% on Day 1 in 96-well plates. […] After 24 hour elapsed, the influence of luteolin and kaempferol on the cell viability was estimated by MTS assay. Briefly, the cells were reincubated with MTS for 1 hour. The soluble formazan produced by cellular reduction of MTS was quantified by measuring the absorbance at 490 nm with Infinite M200 (Tecan, Grödig, Austria) microplate reader. MTS assay was done using CellTiter 96 Aqueous One Solution Cell Proliferation Assay kit (Promega, Madison, WI).

[2] = tested on: PC-3 cells; experiment: Intracellular calcium measurement (Fluo-4) in PC-3 cells; assay type: cell-based, human; conditions: 100 μM ATP
Method: Intracellular calcium levels were monitored using Fluo-4 NW calcium assay kit (Invitrogen, Carlsbad, CA) as per the manufacturer's protocol in FRT and PC-3 cells. Briefly, the cells were cultured in a 96 well plate and incubated with 100 μL assay buffer including Fluo-4 NW. After 1 hour incubation, Fluo-4 fluorescence was measured with a FLUOstar Omega microplate reader equipped with syringe pumps and custom Fluo-4 excitation/emission filters (485/538 nm). Intracellular calcium increase was induced by application of 100 μM ATP.

[3] = tested on: ANO1; experiment: Quantitative real-time PCR of ANO1 mRNA in PC-3 cells; assay type: cell-based, human
Method: Total messenger RNA (mRNA) was extracted by using a TRIzol reagent (Invitrogen, Carlsbad, CA). Quantitative Real-time PCRs were performed using the StepOnePlus Real-Time PCR System (Applied Biosystems, CA) and Thunderbird SYBR qPCR mix (Toyobo, Osaka, Japan). The thermal cycling conditions comprised an initial step at 95°C for 5 minutes followed by 40 cycles at 95°C for 10 seconds, 55°C for 20 seconds, and 72°C for 10 seconds in a 96-well reaction plate. Primers used were as follows: ANO1-sense 5′-GGAGAAGCAGCATCTATTTG-3′, ANO1-antisense 5′ GATCTCATAGACAATCGTGC-3′, β-actin-sense 5′-GCAAAGACCTGTACGCCAACAC-3′ and β-actin-antisense 5′-ATCTCCTTCTGCATCCTGTC-3′. ANO1 mRNA levels were normalized to β-actin levels and the fold-change in gene expression was determined by using 2^-ΔΔCT method. Quantitative PCR experiments were carried out in triplicates.

[4] = target: T1, human ANO1 (abc) (Homo sapiens, UniProt Q5XXA6, DEL476-501); experiment: YFP fluorescence quenching assay (iodide influx) in FRT cells expressing human ANO1; assay type: cell-based; conditions: for IC50: FRT cells expressing ANO1 and YFP, ATP activation, mean ± S.E., n = 3, read-out: IC50, ANO1 inhibition (YFP fluorescence quenching)
T1 sequence (Q5XXA6 with tags, fused parts or gaps isoform Q5XXA6-5 DEL539-564): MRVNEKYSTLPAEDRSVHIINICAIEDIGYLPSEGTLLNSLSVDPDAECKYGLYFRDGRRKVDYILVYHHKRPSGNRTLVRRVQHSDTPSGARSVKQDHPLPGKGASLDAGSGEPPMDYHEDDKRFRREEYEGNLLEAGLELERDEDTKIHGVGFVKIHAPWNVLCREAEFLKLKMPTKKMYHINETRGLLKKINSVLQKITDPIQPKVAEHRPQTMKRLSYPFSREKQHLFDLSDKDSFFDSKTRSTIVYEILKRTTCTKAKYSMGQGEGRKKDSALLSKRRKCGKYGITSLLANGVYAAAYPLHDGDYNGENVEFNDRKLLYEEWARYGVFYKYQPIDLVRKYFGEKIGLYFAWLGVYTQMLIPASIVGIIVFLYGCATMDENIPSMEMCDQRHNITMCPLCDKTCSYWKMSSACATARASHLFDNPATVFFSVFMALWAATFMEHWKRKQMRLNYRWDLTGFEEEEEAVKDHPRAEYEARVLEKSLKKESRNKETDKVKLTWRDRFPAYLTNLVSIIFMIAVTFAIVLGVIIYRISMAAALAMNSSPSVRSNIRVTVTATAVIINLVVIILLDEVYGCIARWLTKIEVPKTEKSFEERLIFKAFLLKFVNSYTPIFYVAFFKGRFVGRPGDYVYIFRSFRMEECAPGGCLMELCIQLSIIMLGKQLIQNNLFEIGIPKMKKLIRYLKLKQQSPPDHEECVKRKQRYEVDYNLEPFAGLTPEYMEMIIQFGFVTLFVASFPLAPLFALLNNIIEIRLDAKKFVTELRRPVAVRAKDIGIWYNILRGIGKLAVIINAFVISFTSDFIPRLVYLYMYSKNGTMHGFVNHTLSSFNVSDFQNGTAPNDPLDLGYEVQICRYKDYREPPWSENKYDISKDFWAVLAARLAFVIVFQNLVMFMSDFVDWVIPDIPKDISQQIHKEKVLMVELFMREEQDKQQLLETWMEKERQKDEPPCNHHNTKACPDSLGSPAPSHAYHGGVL
Method: Fisher rat thyroid (FRT) cells were stably transfected with human ANO1 (abc) or mouse ANO2 and the halide sensor YFP as described in previous study. FRT cells were cultured in Coon`s modified F12 medium with 10% FBS, 2 mM L-glutamine, 100 units/ml penicillin and 100 μg/ml streptomycin at 37°C and 5% CO2. PC-3 cells were grown in RPMI 1640 medium supplemented with 10% FBS, 100 units/ml penicillin and 100 μg/ml streptomycin at 37°C and 5% CO2. There were populations of PC-3 cells with high and low expression of ANO1. To separate high and low levels of ANO1 expressing PC-3 cells, cells were stably transfected with the halide sensor YFP-H148Q/I152L/F46L and then the cells were plated on 96 well plates at 1 cell per well. After two weeks of incubation, high and low levels of ANO1 expressing PC-3 cells were separated by YFP quenching assay. ANO1 was activated by 100 μM ATP.
ANO1 and YFP expressing FRT cells were plated in 96-well black-walled microplates (Corning Inc., Corning, NY) at a density of 20,000 cells per well. Assays were done using FLUOstar Omega microplate reader (BMG Labtech, Ortenberg, Germany) and MARS Data Analysis Software (BMG Labtech) as described in our previous study. Briefly, each well of 96-well plate was washed 3 times in PBS (200 μL/wash) and test compounds were added to each well at 25 μM final concentration. After 10 minutes incubation at 37°C, 96-well plates were transferred to the plate reader for fluorescence assay. Each well was assayed individually for ANO1-mediated I^- influx by monitoring YFP fluorescence continuously (400 ms per point) for 2 s (baseline), then 140 mM I^- solution containing 200 μM ATP was added at 2 s and then YFP fluorescence was recorded for 6 s. Initial iodide influx rate was determined from the initial slope of fluorescence decrease, by nonlinear regression, following infusion of iodide with ATP.

[5] = tested on: PC-3; design: method as in PMID 18008333, PMID 23300633; conditions: intraperitoneal 10 mg/kg; PC-3 xenograft mouse; cited from earlier work
[6] = tested on: LNCaP; design: method as in PMID 18008333, PMID 23300633; conditions: intraperitoneal 50 mg/kg; LNCaP xenograft mouse; cited from earlier work

SMILES | Inhibition of cell proliferation, high versus low ANO1 expressing PC-3 cells [1] | Effect on ATP-induced intracellular calcium increase [2] | Change of ANO1 gene expression levels ([3]; 10 μM) | IC50 [4] | Decrease of cell viability ([1]; 30 μM, PC-3 cells expressing high levels of ANO1) | Volume and weight of solid tumors [5] | Increase of ANO1 mRNA expression levels ([3]; 10 μM) | Change of ANO1 gene expression levels ([3]; 30 μM) | Block of ATP-induced ANO1 activation (YFP) ([4]; 100 μM) | Volume and weight of solid tumors [6]
O=c1c(O)c(-c2ccc(O)cc2)oc2cc(O)cc(O)c12 [Kaempferol] | did not show the significant difference | did not alter | slightly increased | 14.55 ± 0.03 µM |  |  |  |  |  | 
O=c1cc(-c2ccc(O)c(O)c2)oc2cc(O)cc(O)c12 [luteolin] | significantly stronger in PC-3 cells with high levels of ANO1 expression | did not alter | slightly increased | 9.37 µM and ~9.4 µM | 52.6 ± 3.8% | significantly decreased | ~ 1.3 fold | significantly decreased | almost completely blocked | significantly decreased
